Source: US20220000871A1, “METHODS AND COMPOSITIONS FOR TREATING NEURODEGENERATIVE DISEASES USING MODULATORS OF PHOSPHOGLYCERATE KINASE 1 (PGK1) ACTIVITY” (UNIVERSITY OF IOWA RESEARCH FOUNDATION, priority 2019, published 2022)
Where “and” joins values, the source holds several entries; their conditions need not be identical. Identical values can stand only once.

What was measured:
PD-free enrollees = experiment: Truven database: incidence and survival analysis of PD diagnoses; assay type: in vivo, human; conditions: matched cohort, 78,444 PD-free enrollees per group
Text: A cohort of enrollees newly started on TZ/DZ/AZ or tamsulosin was constructed. We defined newly started as at least 365 days of enrollment with prescription drug coverage prior to the first fill event for TZ/DZ/AZ or tamsulosin. Additionally, we required the enrollee to be PD-free at the time of the first fill (no prior PD diagnosis code). A total of 78,509 enrollees on TZ/DZ/AZ were identified and these enrollees were followed for an average of 285±382 days with a total of 118 cases of PD (incidence=0.15%). We matched each TZ/DZ/AZ user to a tamsulosin user of the same age at medication start and with the minimum difference in the duration of follow up. We were able to successfully match 78,444 of the 78,509 enrollees on TZ/DZ/AZ to an enrollee on tamsulosin. In the matched cohort, enrollees taking TZ/DZ/AZ have, on average, 284±381 days of follow up compared to 284±382 days of follow up in those taking tamsulosin. Of the 78,444 enrollees taking TZ/DZ/AZ, a total of 118 (0.15%) developed PD compared to 190 (0.24%) among those taking tamsulosin. We used a Cox proportional hazards regression to model the relative hazard of developing PD among those in the matched cohort taking TZ/DZ/AZ compared to those taking tamsulosin while accounting for censoring due to stopping the medication or exiting the data before developing PD. […]

patients with PD = experiment: Analysis of the PPMI database (MDS-UPDRS Part 3 motor progression); assay type: in vivo, human; conditions: for rate of motor function decline / progression of motor disability: PPMI database, vs controls; for MDS-UPDRS Part 3 Slope of change/month, mean ± S.E.: PPMI, male PD patients, baseline to ~1 year
Text: FIG. 7. TZ and related drugs slow progression of motor defects for patients with PD enrolled in the PPMI database. MDS-UPDRS Part 3 (motor) scores of PD patients in the PPMI database. Patients were taking TZ/DZ/AZ (blue, N=13), tamsulosin (green, N=24), or neither (red, N=269). Data are scores at entry into PPMI through ˜1 year and include all measures between those times. All patients taking these drugs were males prescribed TZ/DZ/AZ or tamsulosin without breaks for benign prostatic hyperplasia or undefined urological problems. Lines are plotted from linear mixed effect regression analyses. By maximum likelihood estimation, TZ/DZ/AZ differed from controls (P=0.012).
FIG. 18. UPDRS scores for 13 patients with PD taking TZ/DZ/AZ. Each set of data points and lines indicates an individual patient. Bold line and shading indicate the linear regression line and 95% confidence intervals for the 13 patients. See legend of FIG. 7 for more information.
We analyzed data from the PPMI database (21) for patients taking TZ alone, TZ/DZ/AZ, or tamsulosin. We tested if these drugs influenced the rate of motor progression as measured by part III of the Movement Disorder Society's Unified Parkinson's Disease Rating Scale ([…]), which is a metric of motor disability in Parkinson's disease (22). For this analysis, only participants who were using TZ/DZ/AZ or tamsulosin at their baseline PPMI visit were included in the drug groups. PPMI protocol dictates that the fourth visit should occur approximately one year after the baseline visit; accordingly, any visit that occurred between the baseline visit and the fourth PPMI visit were included. Participants also had to have more than one visit to be included. Of the 13 participants in the TZ/DZ/AZ group, 11 were taking the medication-of-interest without breaks until their fourth visit. One participant was taking DZ at the time of their baseline visit, but discontinued within 30 days of their baseline visit. That participant was only considered to be using DZ during their first and second visits. Another participant was using AZ at their baseline visit and for approximately 5 months after that. This participant was considered to be taking AZ during their first and second visits. If these two participants were excluded from the analysis and only participants who were taking the medication-of-interest without breaks in therapy were included, the results change only marginally. The TZ/DZ/AZ group (n=11) has a slope of change of 0.02±0.21 compared to 0.53±0.05 in the control group (n=269, p=0.015). […]
Only MDS-UPDRS readings that were obtained when the participants were not yet taking a PD medication or were in the practically defined OFF state (at least 6 hours after the last dose of levodopa or any other anti-PD medication) were utilized for this analysis. […]

[1] = system: M17 human neuroblastoma cells; experiment: Glycolysis and mitochondrial function in M17 cells
Method: Cells were incubated with mild hypoxia for 12 hr before study. Cells were cultured in a sealed chamber (Stemcell Technologies Vancouver, Canada) that was flushed with a humidified gas mixture composed of 5% 02, 5% carbon dioxide (CO2), and 90% nitrogen (N2) for 12 hr. […] Assays of ATP, pyruvate, and citrate synthase activities (CS) were performed according to the manufacturer's instructions.
A Seahorse XV analyzer (XF^e-24, Seahorse Bioscience, Billerica, Mass., USA) was used to measure the oxygen consumption rate (OCR) and the extracellular acidification rate (ECAR) as previously described (18). The M17 cells and iPS cells were seeded in XF^e 24-well plates (Seahorse Bioscience), while the plates used for iPS cells were poly-D-lysine pre-coated. Assay medium was prepared by supplementing Seahorse XF^eBaseMedium minimal DMEM (Seahorse Bioscience) with 2 mM L-glutamine for a Glycolysis Stress Test assay or 2 mM L-glutamine, 1 mM pyruvate and 10 mM glucose for a Mito Stress Test assay (Sigma). pH was adjusted to 7.4 at 37° C. Probes (Seahorse Bioscience) were hydrated in the calibrant (Seahorse Bioscience) in a non-CO2 incubator at 37° C. overnight. Cells were washed twice with assay medium and kept in a non-CO2 incubator at 37° C. for 1 hr before analysis. Glucose, oligomycin and 2-deoxy-glucose (2-DG) were pre-loaded in the probe plate for Glycolysis Stress Test, while oligomycin, FCCP and a mixture of rotenone and antimycin A were used for Mito Stress Test.
Citrate synthase (CS) activity, LDH assay and pyruvate level were detected using commercial kits according to the manufacturer's directions. ATP content in animal tissues and M17 cells were detected with the ATP assay kit following the manufacturer's directions.

[2] = target: T1, phosphoglycerate kinase 1 (PGK1) (Homo sapiens, UniProt P00558); conditions: reference 18; cited from earlier work
T1 sequence (P00558 1-417): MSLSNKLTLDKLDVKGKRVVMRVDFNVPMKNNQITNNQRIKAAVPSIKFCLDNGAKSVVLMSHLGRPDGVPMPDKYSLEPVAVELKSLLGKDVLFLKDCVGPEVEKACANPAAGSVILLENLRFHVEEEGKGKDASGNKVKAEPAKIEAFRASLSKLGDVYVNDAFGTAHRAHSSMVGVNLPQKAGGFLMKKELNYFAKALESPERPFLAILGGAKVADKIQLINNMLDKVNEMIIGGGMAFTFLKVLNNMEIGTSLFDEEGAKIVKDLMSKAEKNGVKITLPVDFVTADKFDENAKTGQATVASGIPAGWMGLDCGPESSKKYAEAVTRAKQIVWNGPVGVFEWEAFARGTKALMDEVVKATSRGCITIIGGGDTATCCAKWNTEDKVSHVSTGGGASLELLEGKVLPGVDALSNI

diabetic patients = conditions: references 48, 49; cited from earlier work
PINK1^5 flies = experiment: PINK1^5 fly genetic model of PD; assay type: in vivo, Drosophila; conditions: TZ day 1 after hatching to day 10
Text: N=6, with 80 flies for each treatment in each trial. […] N=3, with 100 flies for each treatment in each trial. […] N=6, with 100 flies for each treatment in each trial. […] Data are from individual groups of flies (A-F) and individual mice (I-K). Bars and whiskers indicate mean±SEM. […] In the figures, *p<0.05, **p<0.01, ***p<0.001. For panel D, the statistical analysis was 1-way ANOVA with Tukey, and for all other panels, a Kruskal-Wallis with a Dwass-Steele-Critchlow-Fligner.
A genetic model of PD in PINK1^5 flies. […] N=3, with 100 flies for each treatment in each trial.

cultured cells = conditions: reference 18, cited from earlier work

CCOc1ccccc1OCCN[C@H](C)Cc1ccc(OC)c(S(N)(=O)=O)c1 [tamsulosin]
enrollees who developed PD (PD-free enrollees): 0.25% and 0.24% | number of people who developed PD (PD-free enrollees): 190 | rate of motor function decline / progression of motor disability (patients with PD): failed to slow | MDS-UPDRS Part 3 Slope of change/month, mean ± S.E. (patients with PD): 0.39 ± 0.14 | glycolysis ([1]; in vitro, 10 μM, 24 hr (ECAR)): does not enhance

COc1cc2nc(N3CCN(C(=O)C4CCCO4)CC3)nc(N)c2cc1OC (stereo not shown) [TZ, terazosin]
rate of motor function decline / progression of motor disability (patients with PD): slower | MDS-UPDRS Part 3 Slope of change/month, mean ± S.E. (patients with PD): 0.01 ± 0.25 | effect on PGK1 [2]: binds and activates | glucose metabolism (diabetic patients): improved | wing posture defects (PINK1^5 flies): partially reversed | apoptosis in cultured cells (cultured cells): inhibited | PGK1 activity in cultured cells (cultured cells; thereby increasing ATP levels): enhanced | glycolysis and mitochondrial function ([1]; TZ 10 μM, 24 hr): enhances
